# Reference: PMC4685510, “A Cell Biologist’s Field Guide to Aurora Kinase Inhibitors” (Frontiers in Oncology, 2015)
# What was measured:
# Assay in all cases: biochemical
# Format in all cases: biochemical
# [1] = target: 363 human kinases (including Aurora A/B/C) (Homo sapiens, UniProt Q13233); settings: MEKK1; for remaining activity at 0.1 µM: 100 nM; for remaining activity at 0.1 µM / remaining activity at 0.5 µM: read-out: % Enzyme Activity (relative to DMSO controls)
# Text: (§1) However, the Aurora A/B selectivity ratios derived from our in vitro and in vivo data can be compared to prioritize inhibitors.
# [2] = target: 363 human kinases (including Aurora A/B/C) (Homo sapiens, UniProt P06239); settings: LCK; for remaining activity at 0.1 µM: 100 nM; for remaining activity at 0.1 µM / remaining activity at 0.5 µM: read-out: % Enzyme Activity (relative to DMSO controls)
# Text: as §1
# [3] = target: T1, 363 human kinases (including Aurora A/B/C) (Homo sapiens, UniProt P54762); settings: EPHB1, [ATP] 100 µM; for remaining activity at 0.1 µM: 100 nM; for remaining activity at 0.1 µM / remaining activity at 0.5 µM: read-out: % Enzyme Activity (relative to DMSO controls)
# T1 sequence (P54762 18-984): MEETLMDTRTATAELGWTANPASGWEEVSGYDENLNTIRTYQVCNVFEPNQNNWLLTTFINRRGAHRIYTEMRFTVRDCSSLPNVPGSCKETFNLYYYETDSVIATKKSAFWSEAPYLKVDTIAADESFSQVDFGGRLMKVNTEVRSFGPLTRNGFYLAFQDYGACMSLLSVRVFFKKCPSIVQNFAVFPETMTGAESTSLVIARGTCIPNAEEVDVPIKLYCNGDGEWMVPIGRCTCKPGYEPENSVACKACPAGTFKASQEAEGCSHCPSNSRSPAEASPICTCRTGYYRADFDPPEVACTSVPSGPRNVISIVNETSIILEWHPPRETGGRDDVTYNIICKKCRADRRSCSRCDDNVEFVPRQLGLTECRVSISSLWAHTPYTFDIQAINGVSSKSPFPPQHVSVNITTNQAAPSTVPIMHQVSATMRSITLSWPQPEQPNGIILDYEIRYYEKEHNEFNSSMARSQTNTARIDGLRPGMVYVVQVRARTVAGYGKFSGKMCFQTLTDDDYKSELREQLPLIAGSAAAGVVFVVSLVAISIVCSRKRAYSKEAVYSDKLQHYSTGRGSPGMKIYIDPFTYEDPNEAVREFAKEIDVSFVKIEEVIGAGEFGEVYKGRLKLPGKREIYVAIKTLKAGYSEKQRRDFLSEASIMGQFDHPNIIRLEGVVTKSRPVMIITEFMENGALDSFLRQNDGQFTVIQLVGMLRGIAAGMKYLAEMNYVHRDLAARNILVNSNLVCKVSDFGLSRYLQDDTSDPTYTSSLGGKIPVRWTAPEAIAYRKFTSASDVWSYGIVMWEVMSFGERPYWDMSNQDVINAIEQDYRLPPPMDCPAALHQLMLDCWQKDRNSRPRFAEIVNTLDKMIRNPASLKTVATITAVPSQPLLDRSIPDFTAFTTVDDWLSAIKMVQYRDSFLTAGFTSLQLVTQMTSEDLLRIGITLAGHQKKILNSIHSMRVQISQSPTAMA
# Text: as §1
# [4] = target: T2, 363 human kinases (including Aurora A/B/C) (Homo sapiens, UniProt Q8IYT8); settings: ULK2; for remaining activity at 0.1 µM: 100 nM; for remaining activity at 0.1 µM / remaining activity at 0.5 µM: read-out: % Enzyme Activity (relative to DMSO controls)
# T2 sequence (Q8IYT8 1-1036): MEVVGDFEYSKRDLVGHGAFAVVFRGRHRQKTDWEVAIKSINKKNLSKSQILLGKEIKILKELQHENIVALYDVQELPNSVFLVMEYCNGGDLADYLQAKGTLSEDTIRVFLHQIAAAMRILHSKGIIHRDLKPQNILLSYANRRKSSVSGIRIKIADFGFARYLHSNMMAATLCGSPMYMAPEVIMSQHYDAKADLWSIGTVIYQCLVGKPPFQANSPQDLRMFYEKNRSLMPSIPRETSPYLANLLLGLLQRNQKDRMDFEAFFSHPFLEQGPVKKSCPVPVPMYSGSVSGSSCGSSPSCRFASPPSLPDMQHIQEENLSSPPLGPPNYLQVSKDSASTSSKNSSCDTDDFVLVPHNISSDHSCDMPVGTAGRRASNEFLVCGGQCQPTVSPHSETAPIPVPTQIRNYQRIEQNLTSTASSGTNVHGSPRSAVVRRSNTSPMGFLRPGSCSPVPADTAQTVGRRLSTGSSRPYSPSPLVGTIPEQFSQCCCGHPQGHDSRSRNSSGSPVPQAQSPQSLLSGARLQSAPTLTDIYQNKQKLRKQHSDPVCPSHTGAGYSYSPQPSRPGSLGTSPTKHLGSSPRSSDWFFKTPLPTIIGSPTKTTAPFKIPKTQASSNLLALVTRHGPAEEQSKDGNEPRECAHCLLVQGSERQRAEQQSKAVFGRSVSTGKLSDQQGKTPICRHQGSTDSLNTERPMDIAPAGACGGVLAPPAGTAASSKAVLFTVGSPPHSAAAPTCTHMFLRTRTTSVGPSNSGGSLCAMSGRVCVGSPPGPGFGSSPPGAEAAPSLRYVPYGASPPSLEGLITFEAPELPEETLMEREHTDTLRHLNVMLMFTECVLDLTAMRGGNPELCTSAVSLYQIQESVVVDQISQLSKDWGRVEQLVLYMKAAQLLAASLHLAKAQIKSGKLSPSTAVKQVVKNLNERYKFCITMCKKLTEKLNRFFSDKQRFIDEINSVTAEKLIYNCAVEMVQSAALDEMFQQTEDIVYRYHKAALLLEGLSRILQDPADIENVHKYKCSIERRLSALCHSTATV
# Text: as §1
# [5] = target: T3, 363 human kinases (including Aurora A/B/C) (Homo sapiens, UniProt O00141); settings: SGK1; for remaining activity at 0.1 µM: 100 nM; for remaining activity at 0.1 µM / remaining activity at 0.5 µM: read-out: % Enzyme Activity (relative to DMSO controls)
# T3 sequence (O00141 1-431): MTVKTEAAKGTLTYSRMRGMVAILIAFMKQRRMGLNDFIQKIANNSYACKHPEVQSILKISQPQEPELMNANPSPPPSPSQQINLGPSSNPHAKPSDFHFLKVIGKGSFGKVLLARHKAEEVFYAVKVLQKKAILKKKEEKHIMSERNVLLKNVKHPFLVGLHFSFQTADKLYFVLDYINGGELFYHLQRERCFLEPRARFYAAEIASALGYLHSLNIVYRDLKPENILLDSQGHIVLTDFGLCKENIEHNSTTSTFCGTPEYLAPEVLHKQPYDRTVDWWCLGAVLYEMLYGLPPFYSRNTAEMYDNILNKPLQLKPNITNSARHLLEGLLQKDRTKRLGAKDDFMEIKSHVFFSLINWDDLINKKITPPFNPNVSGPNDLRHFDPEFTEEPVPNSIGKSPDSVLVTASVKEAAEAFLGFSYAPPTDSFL
# Text: as §1
# [6] = target: 363 human kinases (including Aurora A/B/C) (Homo sapiens, UniProt P07333); settings: FMS; for remaining activity at 0.1 µM: 100 nM; for remaining activity at 0.1 µM / remaining activity at 0.5 µM: read-out: % Enzyme Activity (relative to DMSO controls)
# 363 human kinases (including Aurora A/B/C) (Homo sapiens, UniProt P07333), sequence (P07333 20-972): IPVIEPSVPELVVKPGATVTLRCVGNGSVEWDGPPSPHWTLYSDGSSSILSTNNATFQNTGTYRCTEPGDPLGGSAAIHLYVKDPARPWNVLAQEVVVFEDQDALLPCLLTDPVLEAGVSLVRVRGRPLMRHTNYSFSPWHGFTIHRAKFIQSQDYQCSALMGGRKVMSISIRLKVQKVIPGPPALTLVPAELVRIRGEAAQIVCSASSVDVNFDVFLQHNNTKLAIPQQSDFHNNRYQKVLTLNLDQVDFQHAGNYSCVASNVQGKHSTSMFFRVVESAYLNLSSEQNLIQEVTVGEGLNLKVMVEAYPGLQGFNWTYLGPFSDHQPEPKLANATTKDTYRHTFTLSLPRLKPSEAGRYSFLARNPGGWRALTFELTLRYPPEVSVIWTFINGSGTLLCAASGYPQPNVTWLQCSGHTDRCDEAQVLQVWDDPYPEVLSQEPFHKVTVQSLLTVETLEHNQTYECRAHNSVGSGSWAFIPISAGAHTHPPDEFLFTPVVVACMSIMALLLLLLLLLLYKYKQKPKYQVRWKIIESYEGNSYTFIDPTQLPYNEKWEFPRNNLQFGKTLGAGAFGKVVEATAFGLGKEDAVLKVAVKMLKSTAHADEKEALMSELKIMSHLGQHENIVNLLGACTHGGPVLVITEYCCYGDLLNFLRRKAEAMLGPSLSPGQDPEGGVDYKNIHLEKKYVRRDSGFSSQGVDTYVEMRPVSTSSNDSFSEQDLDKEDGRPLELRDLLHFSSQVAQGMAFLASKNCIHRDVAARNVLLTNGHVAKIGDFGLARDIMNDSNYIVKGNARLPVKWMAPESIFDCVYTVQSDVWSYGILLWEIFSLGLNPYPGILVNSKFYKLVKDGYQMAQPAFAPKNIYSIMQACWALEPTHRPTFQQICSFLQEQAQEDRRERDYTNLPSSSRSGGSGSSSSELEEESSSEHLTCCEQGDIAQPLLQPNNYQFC
# Text: as §1
# 363 human kinases (including Aurora A/B/C) (Homo sapiens, UniProt Q13233), sequence (Q13233 whole entry): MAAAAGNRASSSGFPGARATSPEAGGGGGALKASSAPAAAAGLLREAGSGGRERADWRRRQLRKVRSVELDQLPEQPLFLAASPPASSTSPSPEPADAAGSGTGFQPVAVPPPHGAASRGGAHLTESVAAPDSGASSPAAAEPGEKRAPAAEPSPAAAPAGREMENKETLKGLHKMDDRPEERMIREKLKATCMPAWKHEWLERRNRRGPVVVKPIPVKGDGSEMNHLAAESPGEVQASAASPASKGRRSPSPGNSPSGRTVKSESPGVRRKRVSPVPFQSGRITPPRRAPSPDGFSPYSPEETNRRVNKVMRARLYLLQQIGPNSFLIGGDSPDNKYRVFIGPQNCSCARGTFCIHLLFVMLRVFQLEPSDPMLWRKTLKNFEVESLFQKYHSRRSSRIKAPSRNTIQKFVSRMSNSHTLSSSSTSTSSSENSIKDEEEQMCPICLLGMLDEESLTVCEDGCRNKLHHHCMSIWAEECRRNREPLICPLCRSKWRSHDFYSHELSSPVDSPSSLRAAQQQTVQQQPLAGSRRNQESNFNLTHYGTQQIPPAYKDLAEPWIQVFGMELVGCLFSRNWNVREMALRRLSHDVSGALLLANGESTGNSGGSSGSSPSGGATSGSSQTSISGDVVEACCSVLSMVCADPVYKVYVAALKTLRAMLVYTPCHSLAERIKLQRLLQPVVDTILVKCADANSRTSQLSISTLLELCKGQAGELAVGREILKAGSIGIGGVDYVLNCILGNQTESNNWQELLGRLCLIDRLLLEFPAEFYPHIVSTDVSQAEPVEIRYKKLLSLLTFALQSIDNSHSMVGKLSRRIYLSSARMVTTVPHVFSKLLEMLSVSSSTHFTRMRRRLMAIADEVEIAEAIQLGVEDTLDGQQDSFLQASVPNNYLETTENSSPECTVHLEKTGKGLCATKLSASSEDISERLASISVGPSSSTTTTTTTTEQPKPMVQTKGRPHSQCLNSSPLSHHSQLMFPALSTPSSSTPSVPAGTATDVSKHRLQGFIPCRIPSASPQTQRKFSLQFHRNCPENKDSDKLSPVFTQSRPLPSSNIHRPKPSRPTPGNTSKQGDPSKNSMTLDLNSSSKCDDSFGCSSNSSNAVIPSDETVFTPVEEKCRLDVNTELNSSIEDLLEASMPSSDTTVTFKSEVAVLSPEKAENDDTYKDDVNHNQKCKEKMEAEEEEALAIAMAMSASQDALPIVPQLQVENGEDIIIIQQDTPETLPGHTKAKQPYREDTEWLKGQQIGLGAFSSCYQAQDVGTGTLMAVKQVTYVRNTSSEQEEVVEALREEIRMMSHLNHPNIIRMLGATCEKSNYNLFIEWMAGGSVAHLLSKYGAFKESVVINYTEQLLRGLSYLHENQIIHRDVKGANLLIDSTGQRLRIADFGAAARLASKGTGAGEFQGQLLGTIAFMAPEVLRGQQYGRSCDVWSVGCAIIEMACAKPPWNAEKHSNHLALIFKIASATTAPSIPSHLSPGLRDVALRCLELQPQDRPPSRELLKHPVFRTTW
# 363 human kinases (including Aurora A/B/C) (Homo sapiens, UniProt P06239), sequence (P06239 whole entry): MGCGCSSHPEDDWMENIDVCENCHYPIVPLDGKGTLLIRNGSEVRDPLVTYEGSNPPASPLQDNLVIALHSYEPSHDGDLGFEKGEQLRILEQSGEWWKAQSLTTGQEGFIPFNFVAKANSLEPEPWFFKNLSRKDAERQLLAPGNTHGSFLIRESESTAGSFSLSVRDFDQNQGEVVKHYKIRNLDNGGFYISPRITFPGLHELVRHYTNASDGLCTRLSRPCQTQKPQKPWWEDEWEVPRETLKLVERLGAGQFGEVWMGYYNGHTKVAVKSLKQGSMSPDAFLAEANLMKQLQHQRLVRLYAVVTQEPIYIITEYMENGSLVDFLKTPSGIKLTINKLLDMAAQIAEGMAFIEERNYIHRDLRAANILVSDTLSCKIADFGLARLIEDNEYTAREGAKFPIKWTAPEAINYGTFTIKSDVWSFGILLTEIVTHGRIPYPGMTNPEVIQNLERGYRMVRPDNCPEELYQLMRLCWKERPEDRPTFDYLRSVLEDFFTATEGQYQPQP
smiles,measurement,setting,value
CCn1cc(-c2ccnc3[nH]c(-c4cccc(CN(C)C)c4)cc23)c(-c2ccc(NC(=O)N(C)C)cc2)n1 [GSK1070916],remaining activity at 0.1 µM,[1],91.8%
same,remaining activity at 0.1 µM,[2],72.8%
same,remaining activity at 0.1 µM,[3],89.2%
same,remaining activity at 0.1 µM,[4],141%
same,remaining activity at 0.1 µM,[5],118%
same,remaining activity at 0.1 µM,[6],80.2%
O=C(O)[C@]1(Cc2cccc(Nc3nccs3)n2)CC[C@@H](Oc2cccc(Cl)c2F)CC1 [MK-5108],remaining activity at 0.1 µM,[1],104%
same,remaining activity at 0.5 µM,[1]; 500 nM,87%
same,remaining activity at 0.1 µM,[2],62.3%
same,remaining activity at 0.5 µM,[2]; 500 nM,16.6%
same,remaining activity at 0.1 µM,[3],42.4%
same,remaining activity at 0.5 µM,[3]; 500 nM,13.9%
same,remaining activity at 0.1 µM,[4],113%
same,remaining activity at 0.5 µM,[4]; 500 nM,134%
same,remaining activity at 0.1 µM,[5],104%
same,remaining activity at 0.5 µM,[5]; 500 nM,113%
same,remaining activity at 0.1 µM,[6],78.2%
same,remaining activity at 0.5 µM,[6]; 500 nM,51.9%
O=C(c1cccc(Cl)c1F)N1CCN(Cc2cccc(Nc3nccs3)n2)CC1 [MK-8745],% Enzyme Activity (relative to DMSO controls),[1]; 500 nM,100.17%
same,remaining activity at 0.5 µM,[1]; 500 nM,101%
same,% Enzyme Activity (relative to DMSO controls),[2]; 500 nM,50.49%
same,remaining activity at 0.5 µM,[2]; 500 nM,53%
same,% Enzyme Activity (relative to DMSO controls),[3]; 500 nM,65.66%
same,remaining activity at 0.5 µM,[3]; 500 nM,65.9%
same,% Enzyme Activity (relative to DMSO controls),[4]; 500 nM,140.35%
same,remaining activity at 0.5 µM,[4]; 500 nM,144%
same,% Enzyme Activity (relative to DMSO controls),[5]; 500 nM,103.73%
same,remaining activity at 0.5 µM,[5]; 500 nM,104%
same,% Enzyme Activity (relative to DMSO controls),[6]; 500 nM,92.34%
same,remaining activity at 0.5 µM,[6]; 500 nM,95%
